Experiments:
IGF-1R = target: T1, IGF-1R (Homo sapiens, UniProt P08069); assay: Competitive binding assay to IGF-1R on MCF7 cell monolayers; conditions: competition against radiolabelled wild-type IGF-1, MCF7 cells
T1 construct: endogenous in cells; host or cells: MCF7 (human breast cancer cell line), near-confluent monolayers
Method: MCF7 cells were plated in a 24-well plate and incubated overnight at 37° C. in a 6.5% CO2 humidified atmosphere in DMEM+glutamine with 10% fetal calf serum (FCS) at a cell number to generate close to confluent monolayers. Cells were washed twice and placed in 0.1 M HEPES-NaOH, pH 7.5, 120 mM NaCl, 5 mM KCl, 1.2 mM MgSO4, 0.1% bovine serum albumin (binding buffer). The plate was preincubated at 4° C. for 1 hour. For the assay wells, long-R3-IGF-1 or IGF-MTX conjugate was added at the indicated concentration in binding buffer (positive controls had no addition). I^125-labeled IGF-1 was then added in the amount of 0.03 μCi per well. Plates were incubated at 4° C. overnight, and then washed twice in binding buffer. Cells were lysed with 300 mM NaOH, 1% SDS. The lysate of each well was counted by scintillation counting. Each condition was assayed in duplicate.
A competition binding assay between the IGF-MTX conjugate and radiolabelled IGF-1 was performed as described in the Materials and Methods. MCF7 cells were grown to near confluence, and incubated with unconjugated long-R3-IGF-1 or conjugated IGF-MTX in competition with radiolabelled wild-type IGF-1 (FIG. 9).

LNCAP cells [1] = assay: In vitro proliferation assay, LNCaP (Example 8); type: cell-based, human
Method: LNCaP, MCF7 and MCF7-L cell lines were plated, respectively, in a 96-well plate at 5,000 cells per well in RPMI+glutamine+10% FCS medium in 100 μl. After 24 hours, 100 μl fresh medium was added containing no drug (control), IGF-MTX or MTX at the indicated concentration.

MCF7 tumors = assay: MCF7 xenograft tumor growth in nu/nu mice; type: in vivo, mouse
Method: (§1) MCF7 cells (human breast adenocarcinoma cell line) were grown in Eagle's minimal essential medium supplemented with 0.1 mg/ml insulin and 10% FCS. The estrogen-dependent MCF7-L cell line was a gift from Deepali Sachdev of the University of Minnesota. MCF7-L cells were grown in modified IMEM medium (Invitrogen, Carlsbad, Calif., USA) supplemented with 0.1 mg/ml insulin. LNCaP cells (metastatic human prostatic adenocarcinoma) were grown in RPMI supplemented with glutamine and 10% FCS (Invitrogen, Carlsbad, Calif., USA). Cells were grown at 37° C. in a 5% CO2 humidified atmosphere. In each case, cells were grown to approximately two-thirds confluence, harvested by trypsinization, washed with rich medium and then washed twice with PBS and resuspended in phosphate buffered saline in BD matrigel matrix (Becton Dickinson, Franklin Lakes, N.J., USA). Cells were injected intradermally in mice on the back. An estrogen pellet (0.5 mg estradiol, 60-day release, Innovative Research of America, Sarasota, Fla., USA) was implanted subcutaneously between the shoulder blades two days before implanting MCF7 and MCF7-L cells. MCF7 and MCF7-L cells were implanted in 8-week-old female nu/nu mice. LNCaP cells were implanted in 8-week-old male nu/nu mice. […] MTX was dissolved in PBS. Untreated vehicle controls received 2 mM HCl, 1% glycerol. Drug was administered intravenously by tail-vein injection in a volume of 12.5 μl per gram mouse weight. All studies were approved by the University of Minnesota Animal Care and Use Committee and conformed to relevant ethical guidelines.
Three in vivo studies were performed to assess the targeting of MTX with long-R3-IGF-1. In the initial preliminary study, breast cancer MCF7 cells were implanted intradermally in the backs of nude mice.

MCF7-L tumors = assay: MCF7-L xenograft tumor growth in nu/nu mice; type: in vivo, mouse; conditions: day 22; IGF-MTX 10 nmol of MTX/g or free MTX 40 nmol/g, tail vein, days 0 and 5
Method: as §1, with “Drug was administered intravenously by tail-vein injection in a volume of 12.5 μl per gram mouse weight. All studies were approved by the University of Minnesota Animal Care and Use Committee and conformed to relevant ethical guidelines.” left out

LNCAP tumors = assay: LNCaP xenograft tumor growth in nu/nu mice; type: in vivo, mouse; conditions: for fold lower dose at which it is or appears more effective than free MTX: LNCaP xenografts (prostate cancer model in mice)
Method: as §1
In a final in vivo study, prostate cancer LNCaP cells were implanted intradermally on day 0 in mice, which were then randomized to different treatment groups.

[2] = IGF-MTX- and MTX-related toxicity in mice (ill effects, body weight); conditions: mouse, in vivo
Method: as §1

LNCAP cells [3] = assay: LNCAP proliferation in vitro (Example 5, cell counting kit-8)
Method: LNCAP cells were plated in a 96-well plate at 3,000 cells per well in RPMI medium supplemented with 10% fetal bovine serum (FBS). After incubation overnight, the medium in the wells was replaced with 100 μl per well of RPMI supplemented with 0.1% FBS. […] After incubation for 4 days, cell proliferation was assayed with the cell counting kit-8 (Dojindo Molecular Technologies, Gaithersburg, Md.).

[4] = system: MDA-MB-231 breast cancer cells; conditions: cells incubated with insulin; cited from earlier work

T1 sequence (P08069 31-736 limits assumed): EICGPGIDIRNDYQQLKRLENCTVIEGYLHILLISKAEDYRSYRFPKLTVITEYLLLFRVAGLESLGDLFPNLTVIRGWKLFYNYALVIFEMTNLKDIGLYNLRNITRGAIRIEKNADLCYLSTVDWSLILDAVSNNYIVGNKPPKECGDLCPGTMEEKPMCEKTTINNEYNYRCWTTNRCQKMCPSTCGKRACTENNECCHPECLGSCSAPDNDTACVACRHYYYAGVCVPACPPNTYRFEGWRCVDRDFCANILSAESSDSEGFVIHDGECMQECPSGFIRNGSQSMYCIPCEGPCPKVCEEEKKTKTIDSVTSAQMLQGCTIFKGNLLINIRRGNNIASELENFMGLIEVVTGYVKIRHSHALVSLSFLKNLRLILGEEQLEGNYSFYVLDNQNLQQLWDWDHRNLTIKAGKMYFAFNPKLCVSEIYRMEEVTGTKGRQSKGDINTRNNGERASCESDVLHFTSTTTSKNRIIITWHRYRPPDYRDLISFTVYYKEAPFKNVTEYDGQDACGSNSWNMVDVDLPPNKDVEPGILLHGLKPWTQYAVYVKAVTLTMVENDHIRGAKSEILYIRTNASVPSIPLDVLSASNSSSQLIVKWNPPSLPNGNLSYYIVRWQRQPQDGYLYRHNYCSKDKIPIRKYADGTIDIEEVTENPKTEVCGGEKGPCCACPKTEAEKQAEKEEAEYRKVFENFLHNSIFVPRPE
T1 sequence (P08069 741-1367 limits assumed): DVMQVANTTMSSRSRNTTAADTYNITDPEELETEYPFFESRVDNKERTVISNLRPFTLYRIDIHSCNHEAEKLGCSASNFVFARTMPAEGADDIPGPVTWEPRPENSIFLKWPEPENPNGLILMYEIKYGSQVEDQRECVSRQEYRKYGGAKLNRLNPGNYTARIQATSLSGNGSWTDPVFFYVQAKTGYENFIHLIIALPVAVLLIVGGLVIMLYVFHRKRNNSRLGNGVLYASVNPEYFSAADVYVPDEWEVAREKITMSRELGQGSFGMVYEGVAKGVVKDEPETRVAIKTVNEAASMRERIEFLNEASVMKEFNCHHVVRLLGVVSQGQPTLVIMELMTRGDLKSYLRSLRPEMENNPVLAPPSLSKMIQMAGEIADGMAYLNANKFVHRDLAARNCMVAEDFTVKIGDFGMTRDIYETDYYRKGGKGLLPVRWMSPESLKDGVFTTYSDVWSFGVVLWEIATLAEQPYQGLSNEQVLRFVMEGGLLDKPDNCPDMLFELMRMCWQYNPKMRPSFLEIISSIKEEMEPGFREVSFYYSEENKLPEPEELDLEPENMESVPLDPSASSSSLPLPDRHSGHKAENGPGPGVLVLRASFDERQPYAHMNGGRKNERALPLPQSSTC

## IGF-MTX
IGF-1R
  binding to the IGF receptor compared with long-R3-IGF-1: bound more tightly to the IGF receptor than long-R3-IGF-1 at most concentrations
LNCAP cells [1]; LNCaP
  inhibition of proliferation compared to untreated control cells: inhibited proliferation of LNCaP cells
LNCAP cells [1]; LNCaP cells in vitro
  higher concentration than free MTX required to achieve the same inhibitory effect: about 2 times
LNCAP cells [1]; LNCaP, RPMI + 10% FCS, 48 hours with drug, IGF-MTX as concentration of MTX groups
  IC50: ~1000 nM
MCF7 tumors; 10 nmol of MTX/g intravenous, days 0, 4 and 8, 12 days of observation
  MCF7 tumor growth: showed no signs of tumor growth on average
MCF7 tumors; MCF7 xenografts
  fold lower molar dosage at which more effective than free MTX: 4 fold
MCF7 tumors; day 12, IGF-MTX 10 nmol of MTX/g vs free MTX 40 nmol/g
  difference in tumor volume on average between IGF-MTX conjugate-treated group and MTX-treated group: ~8 fold
MCF7-L tumors
  MCF7-L tumor growth inhibition: inhibited about equally
LNCAP tumors; 1.28 nmol/g (as MTX), single tail vein injection on day 5
  LNCaP tumor growth inhibition: did not inhibit tumor growth
LNCAP tumors; 3.2 nmol/g (as MTX), single tail vein injection on day 5
  LNCaP tumor size compared to mice treated with higher doses of free MTX (50, 20 or 8 nmol/g): much smaller
LNCAP tumors; 8 nmol/g (as MTX), single tail vein injection on day 5
  LNCaP tumor size compared to mice treated with higher doses of free MTX (50, 20 or 8 nmol/g): much smaller
LNCAP tumors; 8 nmol/g IGF-MTX vs. 50 nmol/g MTX, day 98, listed as IGF-methotrexate conjugate
  fold lower dose at which more effective than free MTX (statistically significant): 6.5 fold
LNCAP tumors; listed as IGF-MTX conjugate
  fold lower dose at which it is or appears more effective than free MTX: more than 15 fold
LNCAP tumors; listed as IGF-methotrexate conjugate
  fold lower dose at which it is or appears more effective than free MTX: 15 fold
[2]
  Average weight of mice, Day 0: 17.8 g
  Average weight of mice, Day 4: 18.6 g
  Average weight of mice, Day 20: 20.1 g
LNCAP cells [3]; Minimal med. (0.1% FBS), MTX conc. 2 nM
  Cell number (relative units): .677 ± .057 relative units
LNCAP cells [3]; Minimal med. (0.1% FBS), MTX conc. 8 nM
  Cell number (relative units): .794 ± .028 relative units
LNCAP cells [3]; Minimal med. (0.1% FBS), MTX conc. 32 nM
  Cell number (relative units): .921 ± .014 relative units
LNCAP cells [3]; Minimal med. (0.1% FBS), MTX conc. 125 nM
  Cell number (relative units): .921 ± .014 relative units
LNCAP cells [3]; Minimal med. (0.1% FBS), MTX conc. 500 nM
  Cell number (relative units): .635 ± .038 relative units
LNCAP cells [3]; Minimal med. (0.1% FBS), MTX conc. 2000 nM
  Cell number (relative units): .255 ± .014 relative units
LNCAP cells [3]; Rich medium (10% FBS), MTX conc. 2 nM
  Cell number (relative units): 0.716 ± .021 relative units
LNCAP cells [3]; Rich medium (10% FBS), MTX conc. 8 nM
  Cell number (relative units): 0.674 ± .036 relative units
LNCAP cells [3]; Rich medium (10% FBS), MTX conc. 32 nM
  Cell number (relative units): 1.248 ± .018 relative units
LNCAP cells [3]; Rich medium (10% FBS), MTX conc. 125 nM
  Cell number (relative units): 0.891 ± .017 relative units
LNCAP cells [3]; Rich medium (10% FBS), MTX conc. 500 nM
  Cell number (relative units): 0.381 ± .008 relative units
LNCAP cells [3]; Rich medium (10% FBS), MTX conc. 2000 nM
  Cell number (relative units): 0.234 ± .004 relative units

## Cc1c2ccncc2c(C)c2c1[nH]c1ccccc12 [elipticine]
[4]
  stimulation of uptake: 2 fold

Reference: patent US9011880B2, “Compounds and methods for treating cancer” (IGF Oncology, LLC, priority 2003, dated 2015)
